Assay results taken from publication PMC12040169 (PLOS Biology, 2025).

Assay: in vitro
Details: human, hela cells, % viability

Going from `CC(=O)c1ccc(-c2nc(NC(=O)CC#N)cnc2-c2ccc(F)c(Cl)c2)s1` [CBK036841] to `c1coc(CNc2ncc(-c3ccc4c(c3)OCO4)c(-c3cccs3)n2)c1` [CBK286414], the viability at 28.5 h, 10 µM falls from 108% to 93.9%.

First: COC(=O)c1c(NC(=S)Nc2cnccn2)sc2c1CCC(C)C2 (centres unmarked) [CBK266893]
Second: O=C(NC(=S)Nc1ccccc1)c1cncc(Br)c1 [CBK092040]
The viability at 28.5 h, 10 µM of the first is higher: 94.2% for the first, 91.2% for the second.

Compared with `COc1ccc([C@H]2CN(C(=O)c3ccccc3)[C@@H]3CCN(Cc4ccccc4)C[C@H]23)cc1` [CBK285592], `O=C(c1ccco1)N1CCC(c2nnc(-c3ccccc3)c(-c3ccccc3)n2)CC1` [CBK286282] is lower in viability at 28.5 h, 10 µM: 98.5% for the first, 86.4% for the second.

Compared with `O=C(NC[C@H]1O[C@@H](CC(=O)N2CCN(c3ccccn3)CC2)[C@H](O)[C@@H]1O)C1CC1` [CBK288904], `O=C(O)CCc1ccc(-c2cc(N3CCN(c4ccccn4)CC3)ncn2)cc1` [CBK037821] is lower in viability at 28.5 h, 10 µM: 107% for the first, 105% for the second.

First: CC(=O)Nc1cccc(-n2nnnc2SCC(=O)N2CCNC2=O)c1 [CBK305043]
Second: CC(=O)Nc1cccc(-c2nccnc2N2CCCCC2CCO)c1 (centres unmarked) [CBK036591]
The viability at 28.5 h, 10 µM of the first is lower: 88.5% for the first, 101% for the second.

First: CN1CCN(C(=O)c2ccc(Cl)cc2)CC1 [CBK126096]
Second: CN1CCN(C(=O)CN(C)S(=O)(=O)c2ccc3ccccc3c2)CC1 [CBK267053]
The viability at 28.5 h, 10 µM of the first is higher: 104% for the first, 96.4% for the second.

First: Cn1nc(-c2ccc(S(=O)(=O)Nc3nnn[nH]3)s2)cc1C(F)(F)F [CBK062390]
Second: O=C(NCc1cccnc1OCC(F)(F)F)c1ccc(=O)[nH]n1 [CBK305578]
The viability at 28.5 h, 10 µM of the first is higher: 94.4% for the first, 92.1% for the second.

Going from `Cc1[nH]c2ccccc2c1/C=C1/SC(=S)N(CC(=O)O)C1=O` [CBK262220] to `CCOc1cc(/C=C2\SC(=S)N(Cc3ccccc3)C2=O)cc(Cl)c1OC(=O)c1ccco1` [CBK265509], the viability at 28.5 h, 10 µM falls from 118% to 106%.

Compared with `Fc1ccc(-n2cnnn2)cc1` [CBK027592], `O=C(c1cccnc1)N1CCN(S(=O)(=O)c2ccc(F)cc2)CC1` [CBK264210] is lower in viability at 28.5 h, 10 µM: 110% for the first, 92.8% for the second.

Going from `CCC(NC(=O)Nc1cc(N2CCOCC2)ccc1Cl)c1nccs1` (centres unmarked) [CBK306519] to `O=C(NC(Cc1ccsc1)c1nccs1)C1CCOCC1` (centres unmarked) [CBK282824], the viability at 28.5 h, 10 µM rises from 93.2% to 96.4%.

First: O=C(/C=C/c1ccc(Cl)cc1Cl)NCCNc1c(Cl)cccc1[N+](=O)[O-] [CBK264295]
Second: O=C(Cc1ccc(Cl)cc1)NC(=S)Nc1ccccc1[N+](=O)[O-] [CBK263909]
The viability at 28.5 h, 10 µM of the first is higher: 110% for the first, 95.4% for the second.

First: CCc1nnsc1C(=O)Nc1nn(C)c2cccc(N3CCOCC3)c12 [CBK307671]
Second: Cc1cnc(CNC(=O)N2CCN(CCN3CCOCC3)CC2)cn1 [CBK155673]
The viability at 28.5 h, 10 µM of the first is lower: 84.4% for the first, 95.2% for the second.

First: Cc1cc2nc(/C(C#N)=C/c3cc(C)n(-c4ccc(C(=O)O)cc4)c3C)[nH]c2cc1C [CBK269105]
Second: Cc1ccn(CCNC(=O)c2cc3cccc(C)c3nc2C)n1 [CBK282645]
The viability at 28.5 h, 10 µM of the first is higher: 92.1% for the first, 82.3% for the second.

Going from `O=c1ccc2ccc(-c3ccsc3)nc2[nH]1` [CBK073710] to `CS(=O)(=O)c1ccc(-c2ccc3ccc(=O)[nH]c3n2)cc1` [CBK073719], the viability at 28.5 h, 10 µM falls from 97% to 86.7%.

First: CC#Cc1cn([C@H]2C[C@@H](O)[C@@H](CO)O2)c(=O)[nH]c1=O [CBK201182]
Second: Cc1cc(NC(=O)CN2CC(C)CC(C)C2)nc2c1c(=O)oc1ccccc12 (centres unmarked) [CBK287620]
The viability at 28.5 h, 10 µM of the first is lower: 104% for the first, 108% for the second.

Going from `CC(C)CCC(C)NC(=O)c1ccc(Oc2ccc(F)cc2)cc1` (centres unmarked) [CBK295650] to `Cc1ccc(N(CC(=O)Nc2cccnc2)S(=O)(=O)c2ccc(F)cc2)cc1` [CBK263332], the viability at 28.5 h, 10 µM rises from 88.3% to 93.8%.

Compared with `O=C(Nc1ccc(N2CCN(C(=O)c3ccccc3F)CC2)cc1)c1nc[nH]n1` [CBK269497], `COc1ccc(S(=O)(=O)N2CCN(C(=O)c3ccco3)CC2)c2ccccc12` [CBK269839] is lower in viability at 28.5 h, 10 µM: 107% for the first, 86.8% for the second.

Going from `Cc1ccc(C(=O)O)cc1NC(=S)NC(=O)c1ccc(-c2ccccc2)cc1` [CBK264997] to `O=C(/C=C/c1cccc([N+](=O)[O-])c1)NC(=S)Nc1ccc(-c2nc3ccccc3[nH]2)cc1` [CBK264376], the viability at 28.5 h, 10 µM rises from 92.7% to 102%.

First: c1ccc(-n2nnnc2SCc2cccc(CSc3nnnn3-c3ccccc3)n2)cc1 [CBK263258]
Second: Cc1nc(CC(NC(=O)C(c2ccccc2)c2ccccc2)c2ccc(F)cc2)cc(=O)[nH]1 (centres unmarked) [CBK285669]
The viability at 28.5 h, 10 µM of the first is lower: 90.4% for the first, 101% for the second.

Compared with `COC(=O)[C@@H]1Cc2ncn(C(C)C)c2CN1S(=O)(=O)c1ccc([N+](=O)[O-])cc1` [CBK288985], `CC(C)COC(=O)N1CCC(N(C)Cc2ccc(-c3ccc(S(C)(=O)=O)cc3)nc2)CC1` [CBK165259T] is lower in viability at 28.5 h, 10 µM: 95.7% for the first, 90.4% for the second.

First: Cc1sc2ncn(Cc3c(Cl)cccc3Cl)c(=O)c2c1C [CBK265355]
Second: CCCc1nn(Cc2ccccn2)c(=O)c2cc3ccsc3n12 [CBK284229]
The viability at 28.5 h, 10 µM of the first is higher: 78.8% for the first, 61.1% for the second.

Compared with `CC(=O)COc1cc(OCC(C)=O)c2c3c(c(=O)oc2c1)CCC3` [CBK307219], `CCCOc1ccc(-c2cc(C(=O)NO)n[nH]2)cc1C` [CBK288362] is lower in viability at 28.5 h, 10 µM: 85.1% for the first, 61.3% for the second.

Going from `O=C(CCn1c(C(F)F)cc2cccnc21)NCc1ccccn1` [CBK285068] to `Cn1cccc1C(=O)NCCNC(=O)c1cc2ccccc2[nH]1` [CBK297894], the viability at 28.5 h, 10 µM falls from 100% to 87.7%.

Going from `COc1ccc(-c2c(C(F)(F)F)oc3cc(OC(=O)c4cccc(C)c4)ccc3c2=O)cc1OC` [CBK263907] to `COc1ccc2[nH]cc(CCNC3CCc4cccc(OC)c4C3)c2c1` (centres unmarked) [CBK016569C], the viability at 28.5 h, 10 µM falls from 99.3% to 80.1%.

Compared with `OCCNc1ncnc2c1ncn2Cc1ccccc1` [CBK287933], `CCCCNCCn1cnc2c(N)ncnc21` [CBK057447] is higher in viability at 28.5 h, 10 µM: 106% for the first, 116% for the second.

First: O=C(Nc1ccncc1)OCCNC(=O)c1ccncc1 [CBK262150]
Second: O=C(NCc1ccc(-c2csnn2)cc1)c1cccnc1 [CBK149309]
The viability at 28.5 h, 10 µM of the first is higher: 102% for the first, 87% for the second.

Compared with `CC(C)(C)c1csc(C(=Cc2ccc(C#N)cc2)C(N)=O)n1` [CBK001154], `N#Cc1ccc(C2NC(=O)c3ccccc3O2)cc1` (centres unmarked) [CBK288180] is higher in viability at 28.5 h, 10 µM: 88.7% for the first, 89.3% for the second.

Compared with `COc1ccc(NS(=O)(=O)c2ccc(NC(=O)c3nc4nc(C)cc(C(F)F)n4n3)cc2)cc1` [CBK266123], `O=C(Nc1ccc(S(=O)(=O)N2CCCCCC2)cc1)c1nc2ncccn2n1` [CBK266155] is higher in viability at 28.5 h, 10 µM: 91.4% for the first, 97.7% for the second.

First: Cc1ccsc1CN(Cc1cncn1C)CC(C)O (centres unmarked) [CBK283033]
Second: Cn1cncc1CN1CCCC(c2cc3cccnc3[nH]2)C1 (centres unmarked) [CBK284948]
The viability at 28.5 h, 10 µM of the first is lower: 85.7% for the first, 98.4% for the second.

First: O=C1NC2(CCSC2)C(=O)N1Cc1noc(-c2cccs2)n1 (centres unmarked) [CBK306225]
Second: O=C(CN1CCC(c2cccc(Cc3cccc(F)c3)n2)CC1)Nc1nccs1 [CBK286090]
The viability at 28.5 h, 10 µM of the first is lower: 90.6% for the first, 91.8% for the second.

Going from `O=C(Nc1ccc(F)cc1)c1ccc(=O)n(CC(=O)N2CCC3(CCCCC3)C2)c1` [CBK286006] to `O=C(CC(CN1CCN(CCN2CCCC2)CC1)C(=O)O)Nc1ccccc1` (centres unmarked) [CBK286833], the viability at 28.5 h, 10 µM rises from 94.9% to 109%.

Compared with `CCn1cncc1CN1CCN(CC2(c3ccc(C)cc3)CC2)CC1` [CBK283307], `OC1(Cn2cnc3ccccc32)CCN(CCc2ccccc2)CC1` [CBK284789] is lower in viability at 28.5 h, 10 µM: 105% for the first, 100% for the second.

Compared with `CC(C)S(=O)(=O)n1c(=O)n(CC(=O)c2csc3ccccc23)c2ccccc21` [CBK106559], `Cc1nc(-c2ccc(S(=O)(=O)N3CCC(Cc4ccccc4)CC3)cc2)cs1` [CBK265494] is higher in viability at 28.5 h, 10 µM: 99.8% for the first, 108% for the second.

Going from `CC1=NS(=O)(=O)NC2=C1CCCC2` [CBK022998] to `CN(CCN1CCCCC1=O)c1nccc(CCC(F)(F)F)n1` [CBK307218], the viability at 28.5 h, 10 µM rises from 96.6% to 106%.

Going from `COc1nccnc1-c1cc2ccccc2s1` [CBK106781] to `COc1nccnc1N1CCN(CCc2ccccc2)CC1` [CBK084228], the viability at 28.5 h, 10 µM rises from 87.7% to 102%.

First: CCn1cc(C(=O)N[C@H](C(=O)O)C(C)C)c(=O)c2cc3c(cc21)OCO3 [CBK286786]
Second: Cc1occc1C(=O)NC(C)c1ccc2c(c1)OCO2 (centres unmarked) [CBK268153]
The viability at 28.5 h, 10 µM of the first is higher: 110% for the first, 105% for the second.

First: Nc1nonc1C(=O)NCCNC(=O)c1ccco1 [CBK058480]
Second: CCOC(=O)Cc1nnc(-c2ccc(Cl)cc2)[nH]1 [CBK021882]
The viability at 28.5 h, 10 µM of the first is higher: 99.1% for the first, 89.1% for the second.

Compared with `CC(C)NC(=O)C[C@@H]1c2nc(-c3ccccc3)sc2C[C@@H]2[C@](C)(CO)[C@H](O)CC[C@]21C` [CBK289570], `O=C1N=C(NC2CCCCC2)SC1Cc1nc2ccccc2o1` (centres unmarked) [CBK067970] is higher in viability at 28.5 h, 10 µM: 90.6% for the first, 96.4% for the second.

Going from `CCCc1[nH]nc(O)c1Cc1ccccc1-c1ccccc1` [CBK075034] to `CC(C)(C)S(=O)(=O)Nc1nccnc1-c1ccc(OCc2ccccc2)cc1` [CBK050886], the viability at 28.5 h, 10 µM falls from 97.2% to 89.4%.

Going from `CC(C)(C)c1cc(N)c(C(N)=O)s1` [CBK016752] to `Cc1ccc(CCC(=O)N(CC(=O)O)C2CCOCC2)c(C)c1` [CBK304509], the viability at 28.5 h, 10 µM rises from 91.3% to 91.6%.

Compared with `CC(C)C(CNCc1ccn(C)c1)c1ccnn1C` (centres unmarked) [CBK304822], `Cc1cccc(CN2CCC(NC(=O)NCc3ccn(C)c3)CC2)c1` [CBK305259] is higher in viability at 28.5 h, 10 µM: 91% for the first, 105% for the second.

Going from `CCN(CC)C(=O)C1CCCN(C(=O)NCCN2CCOCC2)C1` (centres unmarked) [CBK156128] to `Cc1ccc(C)c2nc3c(cc12)CN(C1CC1)C(=O)CO3` [CBK282858], the viability at 28.5 h, 10 µM falls from 96.1% to 94.8%.

Going from `FC(F)(F)c1ccnc(SCCOc2ccccc2)n1` [CBK103721] to `Cc1cc(COc2ncccc2C(F)(F)F)no1` [CBK115783], the viability at 28.5 h, 10 µM rises from 73.9% to 101%.

Same assay, conditions: human, hela cells, % viability, bulk resorufin, single well

First: CCN(CC)CCCNC=C1C(=O)NC(=O)NC1=O [CBK262403]
Second: O=C1OC(c2c(O)nc(=O)[nH]c2O)c2ccccc21 (centres unmarked) [CBK019775]
The viability at 28.5 h, 10 µM of the first is lower: 94% for the first, 113% for the second.

`CCOC(=O)C1(c2ccccc2)CCN(C(=O)c2ccc(OC(F)(F)F)cc2)CC1` [CBK132174] gave a viability at 28.5 h, 10 µM of 96.2%.
